# Key:
# [1] = target: T1, JAK1-JH2 domain (Homo sapiens, UniProt P23458); test: Binding activity test for JH2 domain of JAK1 (Tb-antibody/tracer FRET)
# T1 construct: IC50 on JH2 domain activity (nM)
# Experimental: (§1) Binding Activity Test for […] Domain of JAK1 and TYK2 The compounds are prepared in DMSO for 200× top dose, then serial dilute it with 27-fold for 3 more points. Add 8 μL/well in echo source plate, echo will add 75 nL/well with 3-fold serial dilution for 11 points in assay plate. 75 nL DMSO for high control and low control. […] For low control, add 5 μL/well assay buffer. And then spin down at 1000 rpm and centrifuge for 30 seconds. After enzyme system prepared, add 5 μL of Tb-antibody solution into each wells of assay plate. Spin down at 1000 rpm and centrifuge for 30 sec. After Tb-antibody added, also add 5 μL of tracer into the assay plate. Spin down at 1000 rpm and centrifuge for 30 sec. Incubate for 60 mins at 25° C. firstly and then continue to incubate the plate at 4° C. overnight. Read by envision in FRET mode. The Luminescence value was recorded by a multi-label reader Envision (PerkinElmer).
# [2] = target: T2, TYK2-JH2 domain (Homo sapiens, UniProt P29597); test: Binding activity test for JH2 domain of TYK2 (Tb-antibody/tracer FRET); conditions: for JAK1/TYK2 selectivity: ratio JAK1-JH2 IC50 / TYK2-JH2 IC50
# T2 construct: IC50 on JH2 domain activity (nM)
# T2 sequence (P29597 589-875 limits assumed): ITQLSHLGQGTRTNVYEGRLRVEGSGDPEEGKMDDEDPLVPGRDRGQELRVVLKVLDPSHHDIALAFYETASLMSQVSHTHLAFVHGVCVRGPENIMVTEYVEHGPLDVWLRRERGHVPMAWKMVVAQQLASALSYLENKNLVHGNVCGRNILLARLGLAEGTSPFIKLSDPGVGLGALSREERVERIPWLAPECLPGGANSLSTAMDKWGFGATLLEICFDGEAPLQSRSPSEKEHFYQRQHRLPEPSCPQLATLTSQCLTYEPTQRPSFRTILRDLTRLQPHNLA
# Experimental: as §1
# [3] = target: T3, Ba/F3-FL-TYK2-P760L cells (Homo sapiens, UniProt P29597, P760L, cells depend on it); test: Anti-proliferative assay, Ba/F3-FL-TYK2-P760L cells (Cell-Titer Glo); assay type: cell-based; conditions: 72 h, read-out: BaF3-FL-T2P760L IC50
# T3 construct: BaF3-FL-T2P760L (nM)
# T3 sequence (P29597 whole entry P760L): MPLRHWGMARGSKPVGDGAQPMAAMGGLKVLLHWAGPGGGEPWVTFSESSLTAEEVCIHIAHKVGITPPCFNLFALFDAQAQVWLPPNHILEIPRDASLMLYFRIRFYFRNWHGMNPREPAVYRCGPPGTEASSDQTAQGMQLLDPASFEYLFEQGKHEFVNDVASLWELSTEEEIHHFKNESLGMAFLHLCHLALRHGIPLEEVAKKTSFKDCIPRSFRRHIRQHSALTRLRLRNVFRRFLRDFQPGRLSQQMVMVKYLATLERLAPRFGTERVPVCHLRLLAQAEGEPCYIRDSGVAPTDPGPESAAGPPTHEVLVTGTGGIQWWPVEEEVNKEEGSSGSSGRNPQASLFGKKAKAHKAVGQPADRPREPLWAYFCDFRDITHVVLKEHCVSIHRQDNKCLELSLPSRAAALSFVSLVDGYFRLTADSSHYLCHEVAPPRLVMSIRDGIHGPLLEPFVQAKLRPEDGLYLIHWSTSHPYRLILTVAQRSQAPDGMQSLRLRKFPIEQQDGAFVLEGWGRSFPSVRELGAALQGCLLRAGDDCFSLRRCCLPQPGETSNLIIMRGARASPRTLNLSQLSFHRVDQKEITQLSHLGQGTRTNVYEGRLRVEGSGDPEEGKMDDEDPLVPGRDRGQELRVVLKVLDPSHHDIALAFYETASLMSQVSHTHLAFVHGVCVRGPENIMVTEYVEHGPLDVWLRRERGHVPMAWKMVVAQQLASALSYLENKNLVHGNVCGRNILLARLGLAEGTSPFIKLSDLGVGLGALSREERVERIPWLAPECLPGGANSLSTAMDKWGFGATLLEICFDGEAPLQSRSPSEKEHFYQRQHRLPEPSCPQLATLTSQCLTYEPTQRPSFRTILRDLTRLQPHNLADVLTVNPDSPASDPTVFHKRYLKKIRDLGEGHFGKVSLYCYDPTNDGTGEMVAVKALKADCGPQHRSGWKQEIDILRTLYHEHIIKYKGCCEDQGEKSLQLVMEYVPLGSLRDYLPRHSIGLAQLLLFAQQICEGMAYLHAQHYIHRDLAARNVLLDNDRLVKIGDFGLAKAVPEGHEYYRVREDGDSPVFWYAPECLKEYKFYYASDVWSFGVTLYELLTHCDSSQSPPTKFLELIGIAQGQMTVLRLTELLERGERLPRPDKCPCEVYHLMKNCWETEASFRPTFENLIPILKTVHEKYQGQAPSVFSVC
# Outline: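 Compound exposure ran 72 h at 37 °C in 5% CO2 across nine 3-fold concentrations from a 20 μM top dose, added 24 h after seeding 2000 cells/well.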
# T1 sequence (P23458 583-855 limits assumed): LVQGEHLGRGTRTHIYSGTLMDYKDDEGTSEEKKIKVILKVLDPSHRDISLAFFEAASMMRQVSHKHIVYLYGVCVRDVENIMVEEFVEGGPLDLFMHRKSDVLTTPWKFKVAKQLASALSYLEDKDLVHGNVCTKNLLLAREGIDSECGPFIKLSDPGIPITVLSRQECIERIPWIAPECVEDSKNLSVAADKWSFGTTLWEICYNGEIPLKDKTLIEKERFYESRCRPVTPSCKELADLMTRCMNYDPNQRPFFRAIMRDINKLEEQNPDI
SMILES,IC50 [1] [nM],IC50 [2] [nM],JAK1/TYK2 selectivity [2],GI50 [3] [nM]
"CCn1ccc2c(c(Nc3cc(NC(=O)C4CC4)ncc3C(=O)NC)cn2C2CC2)c1=O [Example 245, 6-(Cyclopropanecarboxamido)-4-((1-cyclopropyl-5-ethyl-4-oxo-4,5-dihydro-1H-pyrrolo[3,2-c]pyridin-3-yl)amino)-N-methylnicotinamide]",4.34,0.157,27.7,56.4
"[2H]C([2H])([2H])NC(=O)c1cnc(NC(=O)C2CC2)cc1Nc1nn(CCC)c2ccn(CC(F)(F)F)c(=O)c12 [Example 208, 6-(Cyclopropanecarboxamido)-N-(methyl-d3)-4-((4-oxo-1-propyl-5-(2,2,2-trifluoroethyl)-4,5-dihydro-1H-pyrazolo[4,3-c]pyridin-3-yl)amino)nicotinamide]",34.7,0.248,140.1,64.6
"[2H]C([2H])([2H])NC(=O)c1cnc(NC(=O)C2CC2)cc1Nc1ncc2cnn(C3CC3)c2c1OC [Example 267, 6-(Cyclopropanecarboxamido)-4-((1-cyclopropyl-7-methoxy-1H-pyrazolo[4,3-c]pyridin-6-yl)amino)-N-(methyl-d3)nicotinamide]",9.25,0.181,51.1,227
"[2H]C([2H])([2H])NC(=O)c1cnc(NC(=O)CC)cc1Nc1ccc2cnn(CC)c2c1OC [Example 229, 4-((1-Ethyl-7-methoxy-1H-indazol-6-yl)amino)-N-(methyl-d3)-6-propionamidonicotinamide]",105,1.68,62.5,564
"[2H]C([2H])([2H])NC(=O)c1cnc(NC(=O)C2CC(C)C2)cc1Nc1ccc2cnn(CC)c2c1OC (centres unmarked) [Example 236, 4-((1-Ethyl-7-methoxy-1H-indazol-6-yl)amino)-N-(methyl-d3)-6-(3-methylcyclobutane-1-carboxamido)nicotinamide]",43.8,0.969,45.2,892
"[2H]C([2H])([2H])NC(=O)c1cnc(NC(=O)[C@@H]2C[C@H]2F)cc1Nc1ccc2cnn(CC)c2c1OC (relative stereo) [Example 241, 4-((1-Ethyl-7-methoxy-1H-indazol-6-yl)amino)-6-(trans-2-fluorocyclopropanecarboxamido)-N-(methyl-d3)nicotinamide]",15.3,0.534,28.7,161
"[2H]C([2H])([2H])NC(=O)c1cnc(NC(=O)C2CC2)cc1Nc1ccn2ncc(CC(N)=O)c2c1OC [Example 243, 4-((3-(2-Amino-2-oxoethyl)-4-methoxypyrazolo[1,5-a]pyridin-5-yl)amino)-6-(cyclopropanecarboxamido)-N-(methyl-d3)nicotinamide]",130,3.45,37.7,> 5000
"[2H]C([2H])([2H])NC(=O)c1cnc(NC(=O)C2CC2)cc1Nc1ccn2nccc2c1OC [Example 258, 6-(Cyclopropanecarboxamido)-4-((4-methoxypyrazolo[1,5-a]pyridin-5-yl)amino)-N-(methyl-d3)nicotinamide]",14.9,0.834,17.9,205
"[2H]C([2H])([2H])NC(=O)c1cnc(NC(=O)C2CCC2)cc1Nc1ccc2cnn(CC)c2c1OC [Example 242, 6-(Cyclobutanecarboxamido)-4-((1-ethyl-7-methoxy-1H-indazol-6-yl)amino)-N-(methyl-d3)nicotinamide]",45.3,1.18,38.5,404

# More lines, now with the values ahead:
IC50 [1] [nM],IC50 [2] [nM],JAK1/TYK2 selectivity [2],GI50 [3] [nM],SMILES
58.7,3.01,19.5,478,"[2H]C([2H])([2H])NC(=O)c1cnc(NC(C)=O)cc1Nc1ccc2cnn(CC)c2c1OC [Example 230, 6-Acetamido-4-((1-ethyl-7-methoxy-1H-indazol-6-yl)amino)-N-(methyl-d3)nicotinamide]"
4.6,0.266,17.30,103,"[2H]C([2H])([2H])NC(=O)c1cnc(NC(=O)C2CC2)cc1Nc1ccn2ncc(C(C)C#N)c2c1OC (single isomer, unassigned) [Example 251B, (S*)-4-((3-(1-cyanoethyl)-4-methoxypyrazolo[1,5-a]pyridin-5-yl)amino)-6-(cyclopropanecarboxamido)-N-(methyl-d3)nicotinamide]"
27,0.449,60.2,118,"[2H]C([2H])([2H])NC(=O)c1cnc(NC(=O)C2CC2)cc1Nc1ncc2cnn(CCC(F)(F)F)c2c1OC [Example 275, 6-(Cyclopropanecarboxamido)-4-((7-methoxy-1-(3,3,3-trifluoropropyl)-1H-pyrazolo[4,3-c]pyridin-6-yl)amino)-N-(methyl-d3)nicotinamide]"
212,1.68,125.69,> 5000,"[2H]C([2H])([2H])NC(=O)c1cnc(NC(=O)C2CC2)cc1Nc1ccn2ncc(C(C)C(N)=O)c2c1OC (centres unmarked) [Example 252, 4-((3-(1-Amino-1-oxopropan-2-yl)-4-methoxypyrazolo[1,5-a]pyridin-5-yl)amino)-6-(cyclopropanecarboxamido)-N-(methyl-d3)nicotinamide]"
29,0.738,39.25,342,"[2H]C([2H])([2H])NC(=O)c1cnc(NC(=O)C2CC2)cc1Nc1ccc2cnn(C(C)C#N)c2c1OC (single isomer, unassigned) [Example 249B, (S*)-4-((1-(1-cyanoethyl)-7-methoxy-1H-indazol-6-yl)amino)-6-(cyclopropanecarboxamido)-N-(methyl-d3)nicotinamide]"
7.04,0.233,30.19,160,"[2H]C([2H])([2H])NC(=O)c1cnc(NC(=O)C2CC2)cc1Nc1ccn2ncc(C3CC3)c2c1OC [Example 250, 6-(Cyclopropanecarboxamido)-4-((3-cyclopropyl-4-methoxypyrazolo[1,5-a]pyridin-5-yl)amino)-N-(methyl-d3)nicotinamide]"
> 299,4.38,,1270,"CCNC(=O)c1cnc(NC(=O)C2CC2)cc1Nc1ccc2cnn(CC)c2c1OC [Example 97, 6-(Cyclopropanecarboxamido)-N-ethyl-4-((1-ethyl-7-methoxy-1H-indazol-6-yl)amino)nicotinamide]"
9.63,0.385,25.0,130,"[2H]C([2H])([2H])NC(=O)c1cnc(NC(=O)C2CC2)cc1Nc1ccn2ncc(OC)c2c1OC [Example 278, 6-(Cyclopropanecarboxamido)-4-((3,4-dimethoxypyrazolo[1,5-a]pyridin-5-yl)amino)-N-(methyl-d3)nicotinamide]"
5.07,0.26,19.5,70.7,"[2H]C([2H])([2H])NC(=O)c1cnc(Nc2ccn(C)n2)cc1Nc1ccn2ncc(C#N)c2c1OC [Example 240, 4-((3-Cyano-4-methoxypyrazolo[1,5-a]pyridin-5-yl)amino)-N-(methyl-d3)-6-((1-methyl-1H-pyrazol-3-yl)amino)nicotinamide]"

# — patent US20250115597A1, “TYK2 INHIBITORS AND COMPOSITIONS AND METHODS THEREOF” (LYNK PHARMACEUTICALS CO. LTD., priority 2021, published 2025)
